Measurements taken from patent US20100047173A1, “Methods for Using Optical Agents” (priority 2006, published 2010).

Tests used:
[1] = In vivo fluorescence time dependence at the ear after ICG bolus (blood clearance by the liver), normal vs partially hepatectomized rats; design: species or system rat
Procedure: ICG in powdered form was obtained from Sigma (St. Louis, Mo.). Solutions were made by diluting the appropriate amount of ICG in 10 mL of distilled water. Concentrations less than 1 mM were made by serial dilution of a 1 mM stock solution. For ICG fluorescence detection, a nominal 780 nm collimated solid state laser source was employed (LaserMax Inc. model No. LAS-300-780-5). The laser source was directed into the end of a 3.2 mm diameter glass fiber optic bundle (Oriel No. 77526). The other end of this laser delivery bundle was placed approximately 1 cm from the rat ear at an approximate 45° angle. A second similar fiber optic bundle for use as the fluorescence detection conduit was placed approximately 1 cm from the ear at an approximate 30° angle. The exit end of the detection fiber bundle was positioned at the focal length of a 20 mm focal length lens. […] A digital voltmeter monitored the output signal. […]
Female Fischer 344 rats weighing 173-195 g were used. […] The dye was subsequently administered via the indwelling catheter, and the clearance of the agent monitored. […]
To verify that the fluorescence decay curves were related to liver function, and to assess this methodology's feasibility to determine impaired liver function, the following experiment was done. […] A measurement of the time dependence of fluorescence at the ear pre- and post-bolus injection of the ICG solution was measured next. […]

[2] = Ex-vivo continuous wave fluorescence imaging of caecum and lower large intestine after IV ICG; assay type: in vivo; conditions: rat, post-IV administration of aqueous ICG solution, 780 nm excitation, 830 nm detection
Procedure: ICG in powdered form was obtained from Sigma (St. Louis, Mo.). Solutions were made by diluting the appropriate amount of ICG in 10 mL of distilled water. Concentrations less than 1 mM were made by serial dilution of a 1 mM stock solution.
The animals were anesthetized with rat cocktail (xylazine; ketamine; acepromazine 1.5: 1.5: 0.5) at 0.8 mL/kg via intraperitoneal injection. A 21 gauge butterfly infusion set equipped with a stopcock and two syringes containing heparinized saline was placed into the lateral tail vein of the rat. Patency of the vein was checked prior to administration of the agent via the butterfly apparatus.
A simple noninvasive in vivo continuous wave fluorescence imaging apparatus was employed as described below. Light from a LaserMax Inc. laser diode of nominal wavelength 780 nm and nominal power of 40 mW was launched into a fiber optic bundle. A defocusing lens in position after the bundle expanded the beam such that most of the rat was illuminated. The laser power at the output of the bundle was approximately one half of the input power. […]
The above imaging system may also used to view and quantify ex-vivo organs and tissues. […] Blue is indicative of high fluorescence, and red is indicative of low fluorescence.

[3] = Open-surgery fluorescence imaging of the cystic duct after IV fluorescein; assay type: in vivo; conditions: anesthetized pig, approximately 80 minutes post-IV administration of 6 mL of 20 mg/mL fluorescein in PBS
Procedure: FIG. 1 depicts green fluorescence from fluorescein traveling through a cystic duct in an anesthetized pig. The image was taken during open surgery, post-IV administration of 6 mL of a 20 mg/mL concentration of fluorescein in PBS.
The image was taken during open surgery, approximately 80 minutes post-IV administration of 6 mL of a 20 mg/mL concentration of fluorescein in PBS. The pig weighed about 82 pounds.

SMILES	fluorescence decay time, impaired liver function versus normal liver function ([1]; partially hepatectomized rats (33%-38% of liver ligated) vs normal rat, single exponential fit)	loss of initial fluorescence signal at the ear ([1]; rat, after about 15 minutes post-bolus injection of 500 mL of 1.007 mM ICG solution (FIG. 3))	fluorescence of feces in ex-vivo intestine (hepatobiliary excretion) [2]	appearance of fluorescence in the cystic duct [3]
CC1(C)C(/C=C/C=C/C=C/C=C2\N(CCCCS(=O)(=O)[O-])c3ccc4ccccc4c3C2(C)C)=[N+](CCCCS(=O)(=O)[O-])c2ccc3ccccc3c21.[Na+] [ICG]	almost an order of magnitude longer	approximately 90%	feces that fluoresce due to the ICG within	
O=C1OC2(c3ccc(O)cc3Oc3cc(O)ccc32)c2ccccc21 [fluorescein]				fluorescence from fluorescein traveling through the cystic duct
